# Data: ChEMBL document CHEMBL1201862, “PubChem BioAssay data set” (2004)
#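 Results reflect a 48-hour exposure of cells in 96-well plates to compound at five concentrations. GI50: concentration for 50% inhibition of growth.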 The source made the active and inactive calls. No stated cut-off is given here; in the data, active = GI50 up to about 1.1 µM and inactive = higher.
# Experiments:
# Assay in all cases: DTP human tumour cell line panel, 48 h
# 786-0 = system: 786-0
# A498 = system: A498
# A549 = system: A549
# ACHN = system: ACHN
# BT-549 = system: BT-549
# CAKI-1 = system: CAKI-1
# CCRF-CEM = system: CCRF-CEM
# COLO 205 = system: COLO 205
# DU-145 = system: DU-145
# EKVX = system: EKVX
# HCC 2998 = system: HCC 2998
# HCT-116 = system: HCT-116
# HCT-15 = system: HCT-15
# HOP-62 = system: HOP-62
# HOP-92 = system: HOP-92
# HT-29 = system: HT-29
# Hs-578T = system: Hs-578T
# IGROV-1 = system: IGROV-1
# KM12 = system: KM12
# LOX IMVI = system: LOX IMVI
# M14 = system: M14
# MCF7 = system: MCF7
# MDA-MB-231 = system: MDA-MB-231
# MDA-MB-435 = system: MDA-MB-435
# MDA-N = system: MDA-N
# MOLT-4 = system: MOLT-4
# Malme-3M = system: Malme-3M
# NCI-H226 = system: NCI-H226
# NCI-H23 = system: NCI-H23
# NCI-H460 = system: NCI-H460
# NCI-H522 = system: NCI-H522
# OVCAR-3 = system: OVCAR-3
# OVCAR-4 = system: OVCAR-4
# OVCAR-5 = system: OVCAR-5
# OVCAR-8 = system: OVCAR-8
# PC-3 = system: PC-3
# RPMI-8226 = system: RPMI-8226
# RXF 393 = system: RXF 393
# SF-268 = system: SF-268
# SF-295 = system: SF-295
# SF-539 = system: SF-539
# SK-MEL-28 = system: SK-MEL-28
# SK-MEL-2 = system: SK-MEL-2
# SK-MEL-5 = system: SK-MEL-5
# SK-OV-3 = system: SK-OV-3
# SN12C = system: SN12C
# SNB-19 = system: SNB-19
# SNB-75 = system: SNB-75
# SR = system: SR
# SW-620 = system: SW-620
# T47D = system: T47D
# TK-10 = system: TK-10
# U-251 = system: U-251
# UACC-257 = system: UACC-257
# UACC-62 = system: UACC-62
# UO-31 = system: UO-31
smiles,measurement,setting,value
COC(=O)/C=C/c1ccc(OP(=O)(O)O)c(OC)c1,GI50,786-0,> 100 µM (inactive)
same,GI50,A498,> 100 µM (inactive)
same,GI50,A549,> 100 µM (inactive)
same,GI50,ACHN,> 100 µM (inactive)
same,GI50,BT-549,> 100 µM (inactive)
same,GI50,CAKI-1,> 100 µM (inactive)
same,GI50,CCRF-CEM,> 100 µM (inactive)
same,GI50,COLO 205,> 100 µM (inactive)
same,GI50,DU-145,> 100 µM (inactive)
same,GI50,EKVX,> 100 µM (inactive)
same,GI50,HCC 2998,> 100 µM (inactive)
same,GI50,HCT-116,> 100 µM (inactive)
same,GI50,HCT-15,> 100 µM
same,GI50,HOP-62,> 100 µM (inactive)
same,GI50,HOP-92,> 100 µM (inactive)
same,GI50,HT-29,> 100 µM (inactive)
same,GI50,Hs-578T,> 100 µM (inactive)
same,GI50,IGROV-1,> 100 µM (inactive)
same,GI50,KM12,> 100 µM (inactive)
same,GI50,LOX IMVI,> 100 µM (inactive)
same,GI50,M14,> 100 µM (inactive)
same,GI50,MCF7,> 100 µM (inactive)
same,GI50,MDA-MB-231,> 100 µM (inactive)
same,GI50,MDA-MB-435,> 100 µM (inactive)
same,GI50,MDA-N,> 100 µM (inactive)
same,GI50,MOLT-4,> 100 µM (inactive)
same,GI50,Malme-3M,> 100 µM (inactive)
same,GI50,NCI-H226,> 100 µM (inactive)
same,GI50,NCI-H23,> 100 µM (inactive)
same,GI50,NCI-H460,> 100 µM (inactive)
same,GI50,NCI-H522,> 100 µM (inactive)
same,GI50,OVCAR-3,> 100 µM (inactive)
same,GI50,OVCAR-4,> 100 µM (inactive)
same,GI50,OVCAR-5,> 100 µM (inactive)
same,GI50,OVCAR-8,> 100 µM (inactive)
same,GI50,PC-3,> 100 µM (inactive)
same,GI50,RPMI-8226,> 100 µM (inactive)
same,GI50,RXF 393,> 100 µM (inactive)
same,GI50,SF-268,> 100 µM (inactive)
same,GI50,SF-295,> 100 µM (inactive)
same,GI50,SF-539,> 100 µM (inactive)
same,GI50,SK-MEL-28,> 100 µM (inactive)
same,GI50,SK-MEL-2,> 100 µM (inactive)
same,GI50,SK-MEL-5,> 100 µM (inactive)
same,GI50,SK-OV-3,> 100 µM (inactive)
same,GI50,SN12C,> 100 µM (inactive)
same,GI50,SNB-19,> 100 µM (inactive)
same,GI50,SNB-75,> 100 µM (inactive)
same,GI50,SR,> 100 µM (inactive)
same,GI50,SW-620,> 100 µM (inactive)
same,GI50,T47D,> 100 µM (inactive)
same,GI50,TK-10,> 100 µM (inactive)
same,GI50,U-251,> 100 µM (inactive)
same,GI50,UACC-257,> 100 µM (inactive)
same,GI50,UACC-62,> 100 µM (inactive)
same,GI50,UO-31,> 100 µM (inactive)
